{"source": "paper PMC11210663", "about": "(Emerging Infectious Diseases, 2024)", "tested_on": "influenza A(H1N1)pdm09 viruses tested during the 2022–23 influenza season", "assay_type": "biochemical, influenza A(H1N1)pdm09 virus", "settings": "read-out: NA inhibitors median IC50 2022–2023 (reference)"}
{"smiles": "CCC(CC)[C@H](NC(C)=O)[C@@H]1[C@H](O)[C@@H](C(=O)O)C[C@H]1N=C(N)N", "note": "[Peramivir, peramivir]", "values": [{"measurement": "IC50", "result": 70, "unit": "pM"}]}
